“And” between values parts separate entries of the source, which are not always exact repeats. Equal entries are not always repeated. Numbers after ± are expanded uncertainties.
Assays:
[1] = 293.15 K; 101.33 kPa; Liquid; Pycnometric method
[2] = activity coefficient (dimensionless); of the first substance listed, at infinite dilution; xn = mol fraction of the nth substance listed; conditions: Liquid, Chromatography, x1 = 0

| Structure (SMILES) | mass density [1] [kg/m3] | activity coefficient ([2]; 313.15 K) | activity coefficient ([2]; 323.15 K) | activity coefficient ([2]; 333.15 K) |
| --- | --- | --- | --- | --- |
| CCCCn1cc[n+](C)c1.[F][Sb-]([F])([F])([F])([F])[F] [1-butyl-3-methylimidazolium hexafluoroantimonate] | 1694.3 ± 3.8 | – | – | – |
| C=CCCCCC [1-heptene] + CCCCn1cc[n+](C)c1.[F][Sb-]([F])([F])([F])([F])[F] | – | 19.3 and 21.1 | 17.8 and 19.7 | 15.9 and 16.6 |
| C#CCCCCC [1-heptyne] + CCCCn1cc[n+](C)c1.[F][Sb-]([F])([F])([F])([F])[F] | – | 5.74 and 6.11 | 5.82 and 6.08 | 5.74 and 6.23 |
| C#CCCCC [1-hexyne] + CCCCn1cc[n+](C)c1.[F][Sb-]([F])([F])([F])([F])[F] | – | 4.26 and 4.05 | 4.11 and 4.23 | 4.1 and 4.32 |
| C=CCCCCCCC [1-nonene] + CCCCn1cc[n+](C)c1.[F][Sb-]([F])([F])([F])([F])[F] | – | 32.4 and 32.6 | 30.8 and 33.4 | 30.8 and 32.6 |
| C#CCCCCCCC [1-nonyne] + CCCCn1cc[n+](C)c1.[F][Sb-]([F])([F])([F])([F])[F] | – | 11.4 and 11.6 | 10.9 and 11.8 | 10.9 and 11.6 |
| C#CCCCCCC [1-octyne] + CCCCn1cc[n+](C)c1.[F][Sb-]([F])([F])([F])([F])[F] | – | 8.68 and 9.4 | 8.82 and 9.08 | 8.56 and 8.99 |
| C=CCCC [1-pentene] + CCCCn1cc[n+](C)c1.[F][Sb-]([F])([F])([F])([F])[F] | – | 10.1 and 10.5 | 10.2 ± 0.9 | 9.94 and 10.4 |
| C#CCCC [1-pentyne] + CCCCn1cc[n+](C)c1.[F][Sb-]([F])([F])([F])([F])[F] | – | 2.8 and 2.88 | 2.89 and 2.9 | 2.93 and 3.03 |
| CC(C)=O [acetone] + CCCCn1cc[n+](C)c1.[F][Sb-]([F])([F])([F])([F])[F] | – | 0.403 and 0.437 | 0.445 and 0.466 | 0.463 and 0.487 |
| c1ccccc1 [benzene] + CCCCn1cc[n+](C)c1.[F][Sb-]([F])([F])([F])([F])[F] | – | 1.23 and 1.31 | 1.28 and 1.37 | 1.31 and 1.37 |
| CCC(C)=O [butanone] + CCCCn1cc[n+](C)c1.[F][Sb-]([F])([F])([F])([F])[F] | – | 0.648 and 0.632 | 0.681 ± 0.058 | 0.702 and 0.718 |
| C1CCCCCC1 [cycloheptane] + CCCCn1cc[n+](C)c1.[F][Sb-]([F])([F])([F])([F])[F] | – | 20 and 18.7 | 15.7 and 21.1 | 17.3 and 18.2 |
| C1CCCCC1 [cyclohexane] + CCCCn1cc[n+](C)c1.[F][Sb-]([F])([F])([F])([F])[F] | – | 16.4 and 15.4 | 11 and 18.6 | 14.1 and 14.6 |
| C1CCCCCCC1 [cyclooctane] + CCCCn1cc[n+](C)c1.[F][Sb-]([F])([F])([F])([F])[F] | – | 22.9 and 23.4 | 17.2 and 27.1 | 20.4 and 21.5 |
| C1CCCC1 [cyclopentane] + CCCCn1cc[n+](C)c1.[F][Sb-]([F])([F])([F])([F])[F] | – | 11.4 and 11.9 | 10.6 and 10.9 | 10.2 and 10.7 |
| CCO [ethanol] + CCCCn1cc[n+](C)c1.[F][Sb-]([F])([F])([F])([F])[F] | – | 2.33 and 2.46 | 2.14 and 2.3 | 2.01 and 2.07 |
| CCc1ccccc1 [ethylbenzene] + CCCCn1cc[n+](C)c1.[F][Sb-]([F])([F])([F])([F])[F] | – | 3.11 and 2.92 | 3.09 and 3.23 | 3.18 and 3.45 |
| CCCCCCC [heptane] + CCCCn1cc[n+](C)c1.[F][Sb-]([F])([F])([F])([F])[F] | – | 37.1 and 38.7 | 34.2 and 35.8 | 31.4 and 34.4 |
| C=CCCCC [hex-1-ene] + CCCCn1cc[n+](C)c1.[F][Sb-]([F])([F])([F])([F])[F] | – | 14 and 13.1 | 13 and 14.1 | 13.4 and 13.8 |
| CCCCCC [hexane] + CCCCn1cc[n+](C)c1.[F][Sb-]([F])([F])([F])([F])[F] | – | 28.6 and 27.9 | 26.4 and 28.2 | 26 and 26.6 |
| CO [methanol] + CCCCn1cc[n+](C)c1.[F][Sb-]([F])([F])([F])([F])[F] | – | 1.7 and 1.88 | 1.64 and 1.71 | 1.57 ± 0.13 |
| CCCCCCCCC [nonane] + CCCCn1cc[n+](C)c1.[F][Sb-]([F])([F])([F])([F])[F] | – | 47.7 and 48.8 | 44.9 and 49.1 | 44.1 and 47.3 |
| C=CCCCCCC [oct-1-ene] + CCCCn1cc[n+](C)c1.[F][Sb-]([F])([F])([F])([F])[F] | – | 25.7 ± 2.2 | 24.6 and 25.7 | 24.2 and 24.9 |
| CCCCCCCC [octane] + CCCCn1cc[n+](C)c1.[F][Sb-]([F])([F])([F])([F])[F] | – | 40.4 and 44.6 | 39.5 and 42.7 | 39.2 and 42.7 |
| CCCCC [pentane] + CCCCn1cc[n+](C)c1.[F][Sb-]([F])([F])([F])([F])[F] | – | 19.6 and 21.5 | 17.6 and 18.3 | 17 and 18.1 |
| CCCO [propan-1-ol] + CCCCn1cc[n+](C)c1.[F][Sb-]([F])([F])([F])([F])[F] | – | 3.13 and 3.22 | 2.82 and 2.96 | 2.51 and 2.75 |
| Cc1ccccc1 [toluene] + CCCCn1cc[n+](C)c1.[F][Sb-]([F])([F])([F])([F])[F] | – | 1.87 and 1.78 | 1.88 and 1.94 | 1.92 and 1.97 |

Reference: the NIST ThermoML archive (doi:10.1016/j.jct.2010.12.019)
